Patent publication USRE48335E1, “Polymyxin derivatives as antimicrobial compounds” (priority 2014, dated 2020)
≈ marks a conversion by molar mass, not a printed value. Positions of bridges follow the written chain, without caps; N, C: chain ends. Non-standard residues stand in square brackets, D forms with d. Residues, ends and D or L forms follow the SMILES beside them. *: point of attachment. X19 = Cc1cc(Cl)cc(C(=O)*)c1; X22 = CC(C)c1ccc(C(=O)*)cc1; Octanoyl = CCCCCCCC(=O)*; Dab = NCC[C@H](N)C(=O)O; Abu = CC[C@H](N)C(=O)O; Dap = NC[C@H](N)C(=O)O; Aib = CC(C)(N)C(=O)O

How the values were obtained:
Acinetobacter baumannii = tested on: Acinetobacter baumannii
Method in brief: (§1)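 Lipopeptide TFA salts are serially diluted in cation-adjusted Mueller-Hinton broth and inoculated per the CLSI M100-S18 broth microdilution method. The MIC is then recorded, with polymyxin B sulphate included as a control.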

Enterobacter cloacae = tested on: Enterobacter cloacae
Method in brief: as §1

Klebsiella pneumoniae = tested on: Klebsiella pneumoniae
Method in brief: as §1

Pseudomonas aeruginosa = tested on: Pseudomonas aeruginosa
Method in brief: as §1

P. aeruginosa ATCC 27853 = assay: In vivo efficacy in mouse blood infection model (neutropenic Swiss mice); conditions: compound, free base 4 mg/kg intravenously 2 h after inoculation, blood at 4 h
Description: P. aeruginosa ATCC 27853, A. baumannii ATCC 19606 and K. pneumoniae FADDI-KP032 were subcultured on nutrient agar plates. One colony of each bacterial strain was dispersed in 10-mL CAMHB and incubated overnight. On day 2, an aliquot (0.2 mL) of each overnight culture suspension was dispersed in 20-mL CAMHB and incubated for 1.5-2.5 h for production of early log-phase growth bacterial culture. The bacteria in the early log-phase growth suspension were concentrated by centrifugation (3,220 g for 10 min) and re-suspended in sterile 0.9% saline for inoculation into mice. The bacterial cell concentration (colony forming unit [CFU]/mL) in saline was estimated by determining the optical density (OD) of the suspension at 600 nm, and confirmed by plating the suspension on nutrient agar plates. Swiss mice (22 to 28 g) were rendered neutropenic by injecting two doses of cyclophosphamide intraperitoneally, −4 day (150 mg/kg) and −1 day (100 mg/kg) prior to inoculation. Bloodstream infection was established by injecting intravenously 50 μL of early log-phase bacterial suspension (10^8-10^9 CFU/mL). The exact injection volume for each bacterial suspension was calculated based upon the OD value of the bacterial suspension and the desired inoculum for each isolate.
Solutions for administration of colistin, polymyxin B or the compounds were prepared at a concentration of 1 mg (free base) per mL in sterile 0.9% saline. At 2 h after inoculation, a mouse in the treatment groups was injected intravenously with one of the above solutions at 4 μL/g body weight (BW) (i.e. free base 4 mg/kg BW), while the same volume of saline was injected into the control mice. At 0 h or at 4 h after the administration of antibacterial drug or saline (control), animals were euthanised by inhalation of overdose isoflurane. The skin on the chest and fore-paws of each animal was thoroughly cleansed with 70% ethanol and Betadine®. The blood was collected via cardiac puncture using a 1-mL syringe rinsed with heparin (5,000 IU/mL), diluted serially in sterile 0.9% saline and plated on nutrient agar plates using a spiral plater.
The agar plates were incubated at 37° C. overnight. The bacterial colonies on the plate were counted and CFU/mL of the blood was calculated. The log10 CFU/mL of blood in each mouse was calculated. The in vivo activity of the compounds against the bacteria was calculated as the difference of the log10 CFU/mL values between the treated mice and the control mice at 4 h (Δ log=log10 (treated)CFU/mL−log10 (control)CFU/mL).
Any compound showing a decrease in bacterial loading (Δ log) of ≥2 at 4 h is considered to have good in vivo efficacy in this initial screening model.

`CC[C@@H]1NC(=O)[C@@H](CC(C)C)NC(=O)[C@H](CCN)NC(=O)[C@@H](NC(=O)[C@H](CN)NC(=O)[C@@H](NC(=O)[C@H](CCN)NC(=O)c2ccc(C(C)C)cc2)[C@@H](C)O)CCNC(=O)[C@H]([C@@H](C)O)NC(=O)[C@H](CCN)NC(=O)[C@H](CCN)NC1=O` [Compound 99] (X22-[Dab]T[Dap][Dab][Dab][dL][Abu][Dab][Dab]T; lactam 4-C) was tested, and the MIC (Acinetobacter baumannii) was 1 µg/mL (≈ 0.882 µM), the “Minimum inhibitory concentration, Ab A ATCC 17978” value (Acinetobacter baumannii) was 0.25 µg/mL (≈ 0.221 µM) and the “Minimum inhibitory concentration, Ab ATCC 19606” value (Acinetobacter baumannii) was 1 µg/mL (≈ 0.882 µM). For the same compound, the “Minimum inhibitory concentration, Ab FADDI-AB034” value (Acinetobacter baumannii) was 0.25 µg/mL (≈ 0.221 µM), the “Minimum inhibitory concentration, Ec FADDI-EC001” value (Enterobacter cloacae) was 0.25 µg/mL (≈ 0.221 µM) and the “Minimum inhibitory concentration, Ec FADDI-EC003” value (Enterobacter cloacae) was 0.25 µg/mL (≈ 0.221 µM). The “Minimum inhibitory concentration, Ec FADDI-EC006” value (Enterobacter cloacae) was 0.5 µg/mL (≈ 0.441 µM), the MIC (Klebsiella pneumoniae) was 0.5 µg/mL (≈ 0.441 µM) and the MIC (Pseudomonas aeruginosa) was 1 µg/mL (≈ 0.882 µM). For the same compound, the “Minimum inhibitory concentration, Pa ATCC 27853” value (Pseudomonas aeruginosa) was 1 µg/mL (≈ 0.882 µM), the “Minimum inhibitory concentration, Pa FADDI-PA022” value (Pseudomonas aeruginosa) was 0.5 µg/mL (≈ 0.441 µM) and the “Minimum inhibitory concentration, Pa FADDI-PA025” value (Pseudomonas aeruginosa) was 2 µg/mL (≈ 1.76 µM). The “Δ log (Treated-Control at 4 h)” value (P. aeruginosa ATCC 27853) was −3.21 log10 CFU/mL.

In the case of `CC[C@@H]1NC(=O)[C@@H](CC(C)C)NC(=O)[C@H](CCN)NC(=O)[C@@H](NC(=O)[C@H](CN)NC(=O)[C@@H](NC(=O)[C@H](CCN)NC(=O)c2cc(C)cc(Cl)c2)[C@@H](C)O)CCNC(=O)[C@H]([C@@H](C)O)NC(=O)[C@H](CCN)NC(=O)[C@H](CCN)NC1=O` [Compound 114] (X19-[Dab]T[Dap][Dab][Dab][dL][Abu][Dab][Dab]T; lactam 4-C), the MIC (Acinetobacter baumannii) is reported as 2 µg/mL (≈ 1.75 µM), the “Minimum inhibitory concentration, Ab A ATCC 17978” value (Acinetobacter baumannii) is reported as 0.5 µg/mL (≈ 0.439 µM) and the “Minimum inhibitory concentration, Ab ATCC 19606” value (Acinetobacter baumannii) is reported as 2 µg/mL (≈ 1.75 µM). For the same compound, the “Minimum inhibitory concentration, Ab FADDI-AB034” value (Acinetobacter baumannii) was 0.5 µg/mL (≈ 0.439 µM), the “Minimum inhibitory concentration, Ec FADDI-EC001” value (Enterobacter cloacae) was 0.25 µg/mL (≈ 0.219 µM) and the “Minimum inhibitory concentration, Ec FADDI-EC003” value (Enterobacter cloacae) was 0.25 µg/mL (≈ 0.219 µM). The “Minimum inhibitory concentration, Ec FADDI-EC006” value (Enterobacter cloacae) was 0.25 µg/mL (≈ 0.219 µM), the MIC (Klebsiella pneumoniae) was 0.25 µg/mL (≈ 0.219 µM) and the MIC (Pseudomonas aeruginosa) was 0.5 µg/mL (≈ 0.439 µM). The “Minimum inhibitory concentration, Pa ATCC 27853” value (Pseudomonas aeruginosa) was 0.5 µg/mL (≈ 0.439 µM), the “Minimum inhibitory concentration, Pa FADDI-PA022” value (Pseudomonas aeruginosa) was 1 µg/mL (≈ 0.877 µM) and the “Minimum inhibitory concentration, Pa FADDI-PA025” value (Pseudomonas aeruginosa) was 1 µg/mL (≈ 0.877 µM). The “Δ log (Treated-Control at 4 h)” value (P. aeruginosa ATCC 27853) was −2.57 log10 CFU/mL.

`CCCCCCCC(=O)N[C@@H](CCN)C(=O)N[C@H](C(=O)N[C@@H](CN)C(=O)N[C@H]1CCNC(=O)[C@H]([C@@H](C)O)NC(=O)[C@H](CCN)NC(=O)[C@H](CCN)NC(=O)C(C)(C)NC(=O)[C@@H](Cc2ccccc2)NC(=O)[C@H](CCN)NC1=O)[C@@H](C)O` [Compound 140] (Octanoyl-[Dab]T[Dap][Dab][Dab][dF][Aib][Dab][Dab]T; lactam 4-C) was tested, and the MIC (Acinetobacter baumannii) was 2 µg/mL (≈ 1.74 µM), the “Minimum inhibitory concentration (MIC), Ab ATCC 17978” value (Acinetobacter baumannii) was 0.5 µg/mL (≈ 0.436 µM) and the “Minimum inhibitory concentration (MIC), Ab ATCC 19606” value (Acinetobacter baumannii) was 2 µg/mL (≈ 1.74 µM). For the same compound, the “Minimum inhibitory concentration (MIC), Ab FADDI-AB034” value (Acinetobacter baumannii) was 1 µg/mL (≈ 0.872 µM), the “Minimum inhibitory concentration (MIC), Ec FADDI-EC001” value (Enterobacter cloacae) was 0.5 µg/mL (≈ 0.436 µM) and the “Minimum inhibitory concentration (MIC), Ec FADDI-EC003” value (Enterobacter cloacae) was 0.25 µg/mL (≈ 0.218 µM). For the same compound, the “Minimum inhibitory concentration (MIC), Ec FADDI-EC006” value (Enterobacter cloacae) was 1 µg/mL (≈ 0.872 µM), the MIC (Klebsiella pneumoniae) was 0.25 µg/mL (≈ 0.218 µM) and the MIC (Pseudomonas aeruginosa) was 1 µg/mL (≈ 0.872 µM). The “Minimum inhibitory concentration (MIC), Pa ATCC 27853” value (Pseudomonas aeruginosa) was 1 µg/mL (≈ 0.872 µM), the “Minimum inhibitory concentration (MIC), Pa FADDI-PA022” value (Pseudomonas aeruginosa) was 1 µg/mL (≈ 0.872 µM) and the “Minimum inhibitory concentration (MIC), Pa FADDI-PA025” value (Pseudomonas aeruginosa) was 4 µg/mL (≈ 3.49 µM). The “Δ log (Treated-Control at 4 h)” value (P. aeruginosa ATCC 27853) was −3.27 log10 CFU/mL.
